Results from patent US20190133128A1, “Fungicidal pyridazinones” (FMC Corporation, priority 2017, published 2019).

Key:
Assay type in all cases: in vivo
Phytophthora infestans = assay: whole plant or invertebrate; conditions: for Test D disease control rating: tomato seedlings; for pest or weed control at 250 ppm: Phytophthora infestans, in Solanum lycopersicum, read-out: Test D disease control rating
[1] = system: Erysiphe graminis f. sp. tritici; assay: Test G: preventive spray on wheat seedlings, wheat powdery mildew, visual disease rating; conditions: for pest or weed control at 250 ppm: Blumeria graminis, 192 h
Source text: (§1) General protocol for preparing test solutions for Tests AG: the test compounds were first dissolved in acetone in an amount equal to 3% of the final volume and then suspended at the desired concentration (in ppm) in acetone and purified water (50/50 mix by volume) containing the surfactant PEG400 (polyhydric alcohol esters). The resulting test suspensions were then used in Tests AG. Compounds were sprayed at a concentration of 250 ppm or other indicated rate to the point of run-off on the test plants. The test solution was sprayed to the point of run-off on wheat seedlings. […] A dash (-) indicates no test results.

Phakopsora pachyrhizi = assay: Test A: preventive spray on soybean seedlings, Asian soybean rust, visual disease rating; conditions: for pest or weed control at 250 ppm: Phakopsora pachyrhizi
Botrytis cinerea = assay: Test C: preventive spray on tomato seedlings, gray mold, visual disease rating; conditions: for pest or weed control at 250 ppm: Botrytis cinerea
Source text: as §1, with “tomato” for “wheat”

[2] = system: Puccinia recondita f. sp. tritici; assay: Test F: preventive spray on wheat seedlings, wheat leaf rust, visual disease rating; conditions: for pest or weed control at 250 ppm: Puccinia recondita
Source text: as §1, with “seedlings. The following day the seedlings were inoculated with a spore suspension of Puccinia recondita f. sp. tritici;” for “seedlings.”

Zymoseptoria tritici = assay: Test E: preventive spray on wheat seedlings, wheat leaf blotch, visual disease rating; conditions: for pest or weed control at 250 ppm: Zymoseptoria tritici
Source text: as §1

[3] = 250 ppm, 100 = 100% disease control, 0 = no control

| Compound | Test D disease control rating (Phytophthora infestans; [3]) | Test G disease control rating [1, 3] | Test A disease control rating (Phakopsora pachyrhizi; [3]) | Test C disease control rating (Botrytis cinerea; [3]) | Test F disease control rating [2, 3] | Test E disease control rating (Zymoseptoria tritici; [3]) | also measured |
| --- | --- | --- | --- | --- | --- | --- | --- |
| Cn1ncc(O)c(C(=O)Nc2ccc(-c3ccc(F)cc3)cc2)c1=O [Compound 46] | 40% | 0% | 77% | 16% | 80% | 0% |  |
| Cn1ncc(O)c(C(=O)Nc2ccc(OC(F)F)cc2)c1=O [Compound 47, N-[4-(Difluoromethoxy)phenyl]-2,3-dihydro-5-hydroxy-2-methyl-3-oxo-4-pyridazinecarboxamide] |  |  |  |  |  |  | pest or weed control at 250 ppm (Phytophthora infestans): 88%; pest or weed control at 250 ppm [1, 3]: 0%; pest or weed control at 250 ppm (Phakopsora pachyrhizi; [3]): 38%; pest or weed control at 250 ppm (Botrytis cinerea; [3]): 0%; pest or weed control at 250 ppm [2, 3]: 99%; pest or weed control at 250 ppm (Zymoseptoria tritici; [3]): 77% |
| Cn1ncc(O)c(C(=O)Nc2ccc(S(C)(=O)=O)cc2)c1=O [Compound 49] | 0% | 0% | 0% | 0% | 68% | 0% |  |
| Cn1ncc(O)c(C(=O)Nc2ccc(C(F)(F)F)cc2F)c1=O [Compound 50, N-[2-Fluoro-4-(trifluoromethyl)phenyl]-2,3-dihydro-5-hydroxy-2-methyl-3-oxo-4-pyridazinecarboxamide] |  |  |  |  |  |  | pest or weed control at 250 ppm (Phytophthora infestans): 99%; pest or weed control at 250 ppm [1, 3]: 98%; pest or weed control at 250 ppm (Phakopsora pachyrhizi; [3]): 0%; pest or weed control at 250 ppm (Botrytis cinerea; [3]): 85%; pest or weed control at 250 ppm [2, 3]: 100%; pest or weed control at 250 ppm (Zymoseptoria tritici; [3]): 98% |
| Cn1ncc(Cl)c(C(=O)Nc2ccc(OC(F)(F)F)cc2F)c1=O [Compound 51] |  |  |  |  |  |  | Test D disease control rating (Phytophthora infestans; 125 ppm): 57%; Test G disease control rating ([1]; 125 ppm): 0%; Test A disease control rating (Phakopsora pachyrhizi; 125 ppm): 99%; Test C disease control rating (Botrytis cinerea; 125 ppm): 97%; Test F disease control rating ([2]; 125 ppm): 96%; Test E disease control rating (Zymoseptoria tritici; 125 ppm): 89% |
| Cn1ncc(Cl)c(C(=O)Nc2ccc(C(F)(F)F)cc2F)c1=O [Compound 52] |  |  |  |  |  |  | Test D disease control rating (Phytophthora infestans; 160 ppm): 90%; Test G disease control rating ([1]; 160 ppm): 39%; Test A disease control rating (Phakopsora pachyrhizi; 160 ppm): 97%; Test C disease control rating (Botrytis cinerea; 160 ppm): 59%; Test F disease control rating ([2]; 160 ppm): 99%; Test E disease control rating (Zymoseptoria tritici; 160 ppm): 99% |
| Cn1ncc(OC(=O)C(C)(C)C)c(C(=O)Nc2ccc(OC(F)(F)F)cc2)c1=O [Compound 53] | 99% | 98% | 79% | 39% | 100% | 79% |  |
| Cc1cccc(NC(=O)c2c(O)cnn(C)c2=O)c1 [Compound 54] | 0% | 0% | 0% | 0% | 95% | 0% |  |
| COc1cccc(NC(=O)c2c(O)cnn(C)c2=O)c1 [Compound 55] | 0% | 0% | 0% | 0% | 89% | 0% |  |
| Cn1ncc(O)c(C(=O)Nc2cccc(C(F)(F)F)c2)c1=O [Compound 56] | 61% | 35% | 0% | 0% | 92% | 0% |  |
| Cn1ncc(O)c(C(=O)Nc2cccc(OC(F)(F)F)c2)c1=O [Compound 57] | 0% | 98% | 0% | 0% | 84% | 8% |  |
| COc1cnn(C)c(=O)c1C(=O)Nc1ccc(Br)cc1 [Compound 59] | 0% | 0% | 0% | 0% | 0% | 0% |  |
| O=C(Nc1ccc(OC(F)(F)F)cc1)c1c(O)cnn(-c2ccccc2)c1=O [Compound 60] | 88% | 57% | 0% | 0% | 88% | 92% |  |
| Cn1ncc(Cl)c(C(=O)Nc2cccc(OC(F)(F)F)c2)c1=O [Compound 63] |  |  |  |  |  |  | Test D disease control rating (Phytophthora infestans; 270 ppm): 53%; Test G disease control rating ([1]; 270 ppm): 48%; Test A disease control rating (Phakopsora pachyrhizi; 270 ppm): 59%; Test C disease control rating (Botrytis cinerea; 270 ppm): 53%; Test F disease control rating ([2]; 270 ppm): 86%; Test E disease control rating (Zymoseptoria tritici; 270 ppm): 98% |
| Cn1ncc(Cl)c(C(=O)Nc2cccc(C(F)(F)F)c2)c1=O [Compound 64] |  |  |  |  |  |  | Test D disease control rating (Phytophthora infestans; 265 ppm): 53%; Test G disease control rating ([1]; 265 ppm): 0%; Test A disease control rating (Phakopsora pachyrhizi; 265 ppm): 92%; Test C disease control rating (Botrytis cinerea; 265 ppm): 76%; Test F disease control rating ([2]; 265 ppm): 91%; Test E disease control rating (Zymoseptoria tritici; 265 ppm): 94% |
| O=C(Nc1ccc(OC(F)(F)F)cc1)c1c(O)cnn(-c2cccc(C(F)(F)F)c2)c1=O [Compound 71] | 0% | 0% | 12% | 0% | 0% | 0% |  |
| Cn1ncc(OC(=O)c2ccccc2)c(C(=O)N(C(=O)c2ccccc2)c2ccc(OC(F)(F)F)cc2)c1=O [Compound 81] | 0% | 0% | 0% | 0% | 98% | 67% |  |
| Cn1ncc(OS(C)(=O)=O)c(C(=O)Nc2ccc(OC(F)(F)F)cc2)c1=O [Compound 90] | 78% | 0% | 98% | 60% | 98% | 100% |  |
| Cn1ncc(O)c(C(=O)Nc2ccc(S(F)(F)(F)(F)F)cc2)c1=O [Compound 91, [4-[[[2,3-Dihydro-5-hydroxy-2-methyl-3-oxo-4-pyridazinyl]carbonyl]amino]phenyl]pentafluorosulfur] |  |  |  |  |  |  | pest or weed control at 250 ppm (Phytophthora infestans): 97%; pest or weed control at 250 ppm [1, 3]: 89%; pest or weed control at 250 ppm (Phakopsora pachyrhizi; [3]): 46%; pest or weed control at 250 ppm (Botrytis cinerea; [3]): 0%; pest or weed control at 250 ppm [2, 3]: 99%; pest or weed control at 250 ppm (Zymoseptoria tritici; [3]): 100% |
